Assays:
[1] = target: Coagulation factor IX (Homo sapiens, UniProt P00740); assay: Binding affinity towards human factor IXa
[2] = target: Coagulation factor X (Homo sapiens, UniProt P00742); assay: Binding affinity towards human factor Xa
Chain of Coagulation factor X (P00742 41-179 limits assumed): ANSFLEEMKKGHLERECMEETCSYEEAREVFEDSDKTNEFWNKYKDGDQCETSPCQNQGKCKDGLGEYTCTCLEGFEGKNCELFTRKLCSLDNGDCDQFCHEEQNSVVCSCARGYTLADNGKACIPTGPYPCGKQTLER
Chain of Coagulation factor X (P00742 235-488 limits assumed): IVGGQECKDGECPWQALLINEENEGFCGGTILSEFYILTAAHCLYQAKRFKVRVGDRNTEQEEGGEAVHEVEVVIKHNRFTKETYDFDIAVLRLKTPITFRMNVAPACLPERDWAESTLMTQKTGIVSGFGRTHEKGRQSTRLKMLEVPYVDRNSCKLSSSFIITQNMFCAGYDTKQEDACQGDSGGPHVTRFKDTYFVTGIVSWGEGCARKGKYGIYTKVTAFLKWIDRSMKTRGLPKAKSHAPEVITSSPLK

Chain of Coagulation factor IX (P00740 47-191 limits assumed): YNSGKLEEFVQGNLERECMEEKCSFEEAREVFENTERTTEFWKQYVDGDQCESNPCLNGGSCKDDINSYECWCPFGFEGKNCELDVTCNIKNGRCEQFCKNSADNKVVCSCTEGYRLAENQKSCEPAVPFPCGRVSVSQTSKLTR
Chain of Coagulation factor IX (P00740 227-461 limits assumed): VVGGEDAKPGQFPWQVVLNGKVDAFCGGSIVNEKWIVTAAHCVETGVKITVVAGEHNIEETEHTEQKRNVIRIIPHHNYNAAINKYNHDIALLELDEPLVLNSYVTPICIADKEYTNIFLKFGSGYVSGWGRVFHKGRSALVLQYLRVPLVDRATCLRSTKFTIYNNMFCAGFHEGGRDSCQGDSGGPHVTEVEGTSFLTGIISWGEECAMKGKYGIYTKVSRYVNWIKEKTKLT

Row | Ki [1] [nM] | Ki [2] [nM] | SMILES
1 | 5.5 |  | N=C(N)c1cccc(-n2nc(-c3cccnc3)cc2C(=O)Nc2ccc(-n3cnc4ccccc43)cc2)c1
2 | 13 | 0.02 | N=C(N)c1cccc(-n2nc(C(F)(F)F)cc2C(=O)Nc2ccc(-n3cnc4cccnc43)cc2F)c1
3 | 6.4 |  | N=C(N)c1cccc(-n2nc(C(F)(F)F)cc2C(=O)Nc2ccc(-n3cnc4cc(C(F)(F)F)ccc43)cc2F)c1
4 | 15 |  | N=C(N)c1cccc(-n2nc(-c3cccnc3)cc2C(=O)Nc2ccc(-n3cnc4cc(Cl)ccc43)cc2)c1
5 | 20 |  | N=C(N)c1cccc(-n2nc(Cn3ccnn3)cc2C(=O)Nc2ccc(-n3cnc4ccccc43)cc2)c1
6 | 7.9 | 0.02 | N=C(N)c1cccc(-n2nc(C(F)(F)F)cc2C(=O)Nc2ccc(-n3cnc4ncccc43)cc2F)c1
7 | 72 | 0.09 | N=C(N)c1cccc(-n2nc(C(F)(F)F)cc2C(=O)Nc2ccc(-n3ccnc3)cc2)c1
8 | 44 | 0.19 | N=C(N)c1cccc(-n2nc(Cn3cncn3)cc2C(=O)Nc2ccc(-n3cnc4ccccc43)cc2)c1
9 | 1700 |  | N=C(N)c1cccc(-n2nc(C(F)(F)F)cc2C(=O)Nc2ccc(-n3ccc4ccccc43)cc2F)c1
10 | 10 |  | Cc1ccc2c(c1)ncn2-c1ccc(NC(=O)c2cc(C(F)(F)F)nn2-c2cccc(C(=N)N)c2)c(F)c1
11 | 4.2 |  | N=C(N)c1cccc(-n2nc(C(F)(F)F)cc2C(=O)Nc2ccc(-n3cnc4cc(Cl)ccc43)cc2F)c1
12 | 11 | 0.09 | N=C(N)c1cccc(-n2nc(C(F)(F)F)cc2C(=O)Nc2ccc(-n3cnc4ccccc43)cc2)c1
13 | 11 |  | N=C(N)c1cccc(-n2nc(Cn3cnnn3)cc2C(=O)Nc2ccc(-n3cnc4ccccc43)cc2)c1
14 | 190 | 0.05 | N=C(N)c1cccc(-n2nc(C(F)(F)F)cc2C(=O)Nc2ccc(N3C(=O)N=C4C=CC=CC43)cc2)c1 (stereo unspecified)
15 | 26 |  | N=C(N)c1cccc(-n2nc(C(F)(F)F)cc2C(=O)Nc2ccc(-n3cnc4cc(Cl)c(Cl)cc43)cc2F)c1
16 | 7.9 | 0.04 | N=C(N)c1cccc(-n2nc(C(F)(F)F)cc2C(=O)Nc2ccc(-n3cnc4ccncc43)cc2F)c1
17 | 11 |  | N=C(N)c1cccc(-n2nc(C(F)(F)F)cc2C(=O)Nc2ccc(-n3cnc4cc(N)ccc43)cc2F)c1
18 | 82 |  | Cc1cc(C(=O)Nc2ccc(-n3cnc4ccccc43)cc2)n(-c2cccc(C(=N)N)c2)n1
19 | 1900 |  | Cc1cc(C(=O)Nc2ccc(-c3ccccc3S(N)(=O)=O)cc2)n(-c2cccc(C(=N)N)c2)n1
20 | 5.1 |  | N=C(N)c1cccc(-n2nc(C(F)(F)F)cc2C(=O)Nc2ccc(-n3cnc4ccc(Cl)cc43)cc2F)c1
21 | 120 |  | N=C(N)c1cccc(-n2nc(Cn3ccnc3)cc2C(=O)Nc2ccc(-n3cnc4ccccc43)cc2)c1
22 | 8 | 0.03 | N=C(N)c1cccc(-n2nc(C(F)(F)F)cc2C(=O)Nc2ccc(-n3cnc4cnccc43)cc2F)c1
23 | 11 |  | N=C(N)c1cccc(-n2nc(C(F)(F)F)cc2C(=O)Nc2ccc(-n3cnc4cc([N+](=O)[O-])ccc43)cc2F)c1
